{"source": "patent US20140315972A1", "about": "“RS)-2-(2-oxo-4-phenylpyrrolidin-1-yl)acetamide compound having modulatory activity with a commensurate effect, pharmaceutical substance (variants) and its application, composition (variants) thereof” (priority 2011, published 2014)", "key": {"women": {"test_system": "women", "experiment": "Migraine attacks, intranasal drops", "assay_type": "in vivo, human", "procedure": "Table 27 presents the results of studies in women (22-35 years) diagnosed with migraine without aura (simple migraine)—5 subjects, and migraine with aura (classic migraine)—5 subjects. Phenotropil as used as nasal drops (0.1% sterile solution), 10 drops three times a day for 7 days for the purpose of relief and prevention of migraine attacks at onset of prodromal phenomena and aura episodes. 5 drops of the solution were administered into each nostril. One drop of the 0.1% standard solution contained 0.05 mg of Phenotropil."}, "rats [1]": {"test_system": "rats", "experiment": "Forced swimming by Porsolt (behavioral despair), rat pups", "assay_type": "in vivo", "conditions": "for Duration of immobilization vs control: listed as Phenotropil", "procedure": "The antidepressant effect of Phenotropil was studied in adult rats (185-218 g) and rat pups of 28-35 days of age (85-110 g). The test drugs were injected intraperitoneally in the first case and intragastrically in the second case 40 min before the tests. The methods of behavioral despair during forced swimming (Porsolt et al., 1978) and forced swimming with freely rotating wheels (Nomura et al., 1982) were used."}, "mice": {"test_system": "mice", "experiment": "Haloperidol-induced catalepsy", "assay_type": "in vivo", "conditions": "for decrease of catalepsy severity vs control: 300 mg/kg; for Catalepsy: mice", "procedure": "Duration of catalepsy was measured in seconds, after 60, 120 and 180 minutes after the drug administration. Phenotropil was administered intraperitoneally at doses of 50, 100 and 300 mg/kg 15 minutes after haloperidol 0.5 mg/kg. Haloperidol induced catalepsy growing over time. […] At a dose of 50 mg/kg, duration of the catalepsy after 180 min was only 4.8 seconds as compared to controls (63.4 seconds). […] Phenotropil markedly counteracts haloperidol-induced catalepsy, indicating its antiparkinsonian activity."}, "MDA": {"test_system": "MDA", "experiment": "MDA (lipid peroxidation) in saliva after topical course", "assay_type": "in vivo", "conditions": "human saliva after topical course treatment, 100 mg per 100 ml water", "excerpt": "Studies of the effects of Phenotropil on condition of paradontium, enamel and dentin with topic application involved men and women (45-54 years) diagnosed with periodontitis, parodontosis and caries. Enrollment of groups by separate indicators in this age failed. In the vast majority of subjects, the diseases were combined. The gender ratio in groups was: 30.0% men and 70.0% women, the ratio of smokers to non-smokers 60:40, the number of female smokers was higher than male smokers by 35.0%. All patients received every three days the required amount of 0.1%, 0.2% or 0.3% solution of Phenotropil or placebo. The solutions were applied daily as dental trays (for 30 sec.) in the morning and evening at 30 ml per application for 30 days. Food and drinks intake, including water, were not recommended for 2 hours after the procedure. All patients underwent a dental check-up and standard hygienic treatment with removing plaque and dental scale and lavaging the gingival pockets with 1% Phenotropil solution. For each subject, the studied parameters were recorded; the aggregate integral indicator of the general periodontal condition of enamel and dentin was calculated, in the negative scores. The examinations were conducted once a week throughout the period of monotherapy. […]"}, "rats [2]": {"test_system": "rats", "experiment": "Training ability of immature under-trained rats in the CRPA test", "assay_type": "in vivo", "conditions": "for LP1 (training) / LP2 (at 24 h) / ΔLP: under-trained rats 30-35 days", "procedure": "In studying immature animals, it must be considered that to generate CRPA it is required, as was established, to apply higher educational incentives (0.6 mA, 8 pulses vs 5 pulses at 0.45 mA in adult rats) with re-training (after 48 hours). Development of amnesia also requires a higher dose of scopolamine (1.3 mg/kg) in rat pups. […] Phenotropil has not only a psychomodulatory (Ψ-modulatory) activity but also a Ψ-operandmodulatory activity given that the mnemotropic effect is associated with the expression of specific proteins and genes involved in memory, attention and learning."}, "α-INF": {"test_system": "α-INF", "experiment": "Cytokine profile in supernatants of peripheral mononuclear cultures (ELISA), asthenoneurotic patients", "assay_type": "in vivo, human", "conditions": "for α-INF: asthenoneurotic disorders, humans", "procedure": "(§1) The study of immunocompetent activity of Phenotropil included patients with neurasthenia and organic asthenic disorder (20-47 years) of both sexes (men 37%, women 63%). Control group included practically healthy people (20 people). The study groups were similar in age and sex ratio. Phenotropil was administered at a dose of 100 mg/day, one time in the morning for 30 days. Study of the immune and mental status (level of IL-1, IL-2, IL-3, IL-6, α-TNF, α-INF in supernatants of cultures of peripheral mononuclears from whole blood) was carried out before treatment and at days 7, 14, 21 after the therapy course (30 days) and after 3 months of therapy. Blood sampling for analysis was carried out at the same time of day in the control group and in the group of patients. Peripheral mononuclear cells were isolated from the whole blood; interleukin level was determined by ELISA kits (“Immunotech”, France)."}, "IL-3": {"test_system": "IL-3", "experiment": "Cytokine profile in supernatants of peripheral mononuclear cultures (ELISA), asthenoneurotic patients", "assay_type": "in vivo, human", "conditions": "for IL-3 (×10): asthenoneurotic disorders, humans", "procedure": "as §1"}, "IL-6": {"test_system": "IL-6", "experiment": "Cytokine profile in supernatants of peripheral mononuclear cultures (ELISA), asthenoneurotic patients", "assay_type": "in vivo, human", "conditions": "for IL-6: asthenoneurotic disorders, humans", "procedure": "as §1"}, "α-TNF": {"test_system": "α-TNF", "experiment": "Cytokine profile in supernatants of peripheral mononuclear cultures (ELISA), asthenoneurotic patients", "assay_type": "in vivo, human", "conditions": "for α-TNF (×100): asthenoneurotic disorders, humans", "procedure": "as §1"}, "IL-1": {"test_system": "IL-1", "experiment": "Cytokine profile in supernatants of peripheral mononuclear cultures (ELISA), asthenoneurotic patients", "assay_type": "in vivo, human", "conditions": "for IL-1: asthenoneurotic disorders, humans", "procedure": "as §1"}, "IL-2": {"test_system": "IL-2", "experiment": "Cytokine profile in supernatants of peripheral mononuclear cultures (ELISA), asthenoneurotic patients", "assay_type": "in vivo, human", "conditions": "for IL-2 (×10): asthenoneurotic disorders, humans", "procedure": "as §1"}, "[3]": {"conditions": "0.1% nasal drops, 10 drops three times a day 7 days"}, "[4]": {"conditions": "migraine attacks, humans, intranasally 0.5 mg × 3 times per day"}, "[5]": {"conditions": "After treatment (one month course)"}, "[6]": {"conditions": "patients, 100 mg/day 30 days, after course"}, "[7]": {"conditions": "patients, three months after the therapy"}}, "note": "Where “and” joins values, the source holds several entries; their conditions need not be identical. Identical values can stand only once.", "data": [{"smiles": "NC(=O)CN1CC(c2ccccc2)CC1=O", "note": "(racemic) [Compound 1, (RS)-2-(2-oxo-4-phenylpyrrolidine-1-yl)acetamide]", "values": [{"measurement": "patients (of 10) with headaches and their duration decreased significantly", "setting": "women; [3]", "result": 3}, {"measurement": "patients (of 10) with no effect", "setting": "women; [3]", "result": 2}, {"measurement": "patients (of 10) with prodrome and aura completely stopped without headache attacks", "setting": "women; [3]", "result": 5}, {"measurement": "Efficacy: % of subjects with no effect", "setting": "women; [4]", "result": 20, "unit": "%"}, {"measurement": "Efficacy: % of subjects with partial effect", "setting": "women; [4]", "result": 30, "unit": "%"}, {"measurement": "Efficacy: subjects with 100% efficacy", "setting": "women; [4]", "result": "5/10 - 100% efficacy ^"}, {"measurement": "Efficacy: subjects with no effect", "setting": "women; [4]", "result": "2/10"}, {"measurement": "Efficacy: subjects with partial effect", "setting": "women; [4]", "result": "3/10"}, {"measurement": "Duration of immobilization", "setting": "rats [1]; intragastric 100 mg/kg", "result": "86.35 ± 51.97", "unit": "s"}, {"measurement": "Duration of immobilization vs control", "setting": "rats [1]; intragastric 100 mg/kg", "result": "−79.8% and −79.77 * %"}, {"measurement": "Duration of immobilization", "setting": "rats [1]; intragastric 200 mg/kg", "result": "118.72 ± 80.04", "unit": "s"}, {"measurement": "Duration of immobilization vs control", "setting": "rats [1]; intragastric 200 mg/kg", "result": "−72.2% and −72.19 * %"}, {"measurement": "decrease of catalepsy severity vs control", "setting": "mice; 180 minutes", "result": "decreased threefold"}, {"measurement": "decrease of catalepsy severity vs control", "setting": "mice; after the 60 min point", "result": 2.6, "unit": "times"}, {"measurement": "Catalepsy", "setting": "mice; haloperidol 0.5 mg/kg + 50 mg/kg i.p., 120 min", "result": "8.5 ± 3.5", "unit": "s"}, {"measurement": "Catalepsy", "setting": "mice; haloperidol 0.5 mg/kg + 50 mg/kg i.p., 180 min, listed as Phenotropil", "result": "4.8 s and 4.8 ± 2.1 s"}, {"measurement": "Catalepsy", "setting": "mice; haloperidol 0.5 mg/kg + 100 mg/kg i.p., 120 min", "result": "2.0 ± 1.0", "unit": "s"}, {"measurement": "Catalepsy", "setting": "mice; haloperidol 0.5 mg/kg + 100 mg/kg i.p., 180 min", "result": "0.0 ± 0.0", "unit": "s"}, {"measurement": "Catalepsy", "setting": "mice; haloperidol 0.5 mg/kg + 300 mg/kg i.p., 60 min", "result": "6.6 ± 1.9", "unit": "s"}, {"measurement": "Catalepsy", "setting": "mice; haloperidol 0.5 mg/kg + 300 mg/kg i.p., 120 min", "result": "10.6 ± 4.5", "unit": "s"}, {"measurement": "Catalepsy", "setting": "mice; haloperidol 0.5 mg/kg + 300 mg/kg i.p., 180 min", "result": "21.4 ± 8.4", "unit": "s"}, {"measurement": "MDA content", "setting": "MDA", "result": "0.026 ± 0.0415", "unit": "nmol/L"}, {"measurement": "mnemotropic effect by ΔLP index versus saline treated control", "setting": "rats [2]; 50 mg/kg", "result": "+133%"}, {"measurement": "mnemotropic effect by ΔLP index versus saline treated control", "setting": "rats [2]; 100 mg/kg", "result": "+504%"}, {"measurement": "mnemotropic effect by ΔLP index versus saline treated control", "setting": "rats [2]; 300 mg/kg", "result": "+696%"}, {"measurement": "LP1 (training)", "setting": "rats [2]; intragastric 50 mg/kg", "result": "7.2 ± 2.1"}, {"measurement": "LP2 (at 24 h)", "setting": "rats [2]; intragastric 50 mg/kg", "result": "18.4 ± 4.6"}, {"measurement": "ΔLP", "setting": "rats [2]; intragastric 50 mg/kg", "result": "11.2 ± 3.4"}, {"measurement": "LP1 (training)", "setting": "rats [2]; intragastric 100 mg/kg", "result": "7.2 ± 2.1"}, {"measurement": "LP2 (at 24 h)", "setting": "rats [2]; intragastric 100 mg/kg", "result": "36.2 ± 4.6"}, {"measurement": "ΔLP", "setting": "rats [2]; intragastric 100 mg/kg", "result": "29.0 ± 3.4"}, {"measurement": "LP1 (training)", "setting": "rats [2]; intragastric 300 mg/kg", "result": "6.8 ± 1.2^"}, {"measurement": "LP2 (at 24 h)", "setting": "rats [2]; intragastric 300 mg/kg", "result": "45.0 ± 7.5"}, {"measurement": "ΔLP", "setting": "rats [2]; intragastric 300 mg/kg", "result": "38.2 ± 4.4"}, {"measurement": "α-INF", "setting": "α-INF; [5]", "result": "4.18 ± 0.06"}, {"measurement": "α-INF", "setting": "α-INF; At 3 months after treatment", "result": "4.11 ± 0.05"}, {"measurement": "α-INF level vs baseline values", "setting": "α-INF; [6]", "result": "−10.3", "unit": "%"}, {"measurement": "α-INF level vs baseline", "setting": "α-INF; [7]", "result": "−11.8", "unit": "%"}, {"measurement": "IL-3 (×10)", "setting": "IL-3; [5]", "result": "2.13 ± 0.05"}, {"measurement": "IL-3 (×10)", "setting": "IL-3; At 3 months after treatment", "result": "2.23 ± 0.06"}, {"measurement": "IL-3 level vs baseline values", "setting": "IL-3; [6]", "result": "+12.7%"}, {"measurement": "IL-3 level vs baseline", "setting": "IL-3; [7]", "result": "+18.0%"}, {"measurement": "IL-6", "setting": "IL-6; [5]", "result": "3.55 ± 0.15"}, {"measurement": "IL-6", "setting": "IL-6; At 3 months after treatment", "result": "3.80 ± 0.03"}, {"measurement": "IL-6 level vs baseline values", "setting": "IL-6; [6]", "result": "+11.3%"}, {"measurement": "IL-6 level vs baseline", "setting": "IL-6; [7]", "result": "+19.0%"}, {"measurement": "α-TNF (×100)", "setting": "α-TNF; [5]", "result": "8.56 ± 0.60"}, {"measurement": "α-TNF (×100)", "setting": "α-TNF; At 3 months after treatment", "result": "7.92 ± 0.54"}, {"measurement": "α-TNF level vs baseline values", "setting": "α-TNF; [6]", "result": "−11.6", "unit": "%"}, {"measurement": "α-TNF level vs baseline", "setting": "α-TNF; [7]", "result": "−18.2", "unit": "%"}, {"measurement": "IL-1", "setting": "IL-1; [5]", "result": "1.65 ± 0.03"}, {"measurement": "IL-1", "setting": "IL-1; At 3 months after treatment", "result": "1.63 ± 0.04"}, {"measurement": "IL-1 level vs baseline values", "setting": "IL-1; [6]", "result": "−3.5", "unit": "%"}, {"measurement": "IL-1 level vs baseline", "setting": "IL-1; [7]", "result": "−4.6", "unit": "%"}, {"measurement": "IL-2 (×10)", "setting": "IL-2; [5]", "result": "2.09 ± 0.04"}, {"measurement": "IL-2 (×10)", "setting": "IL-2; At 3 months after treatment", "result": "2.21 ± 0.04"}, {"measurement": "IL-2 level vs baseline values", "setting": "IL-2; [6]", "result": "+8.9%"}, {"measurement": "IL-2 level vs baseline", "setting": "IL-2; [7]", "result": "+15.1%"}]}]}
